We go through 19 compounds from patent publication US7423177B2, “Carboxamide derivatives as therapeutic agents” (TransTech Pharma, Inc., priority 2001, dated 2008).

By IC50 is commonly meant the concentration needed to halve the response being measured.

Counter-ions that a name gives are not always drawn.

In assay [1] the target is T1, RAGE (sRAGE) binding to S100b (Homo sapiens, UniProt Q15109).
T1 construct: extracellular domain can be isolated by proteolysis of RAGE to generate soluble RAGE (sRAGE) comprised of the V and C domains
T1 sequence (Q15109 23-342 limits assumed): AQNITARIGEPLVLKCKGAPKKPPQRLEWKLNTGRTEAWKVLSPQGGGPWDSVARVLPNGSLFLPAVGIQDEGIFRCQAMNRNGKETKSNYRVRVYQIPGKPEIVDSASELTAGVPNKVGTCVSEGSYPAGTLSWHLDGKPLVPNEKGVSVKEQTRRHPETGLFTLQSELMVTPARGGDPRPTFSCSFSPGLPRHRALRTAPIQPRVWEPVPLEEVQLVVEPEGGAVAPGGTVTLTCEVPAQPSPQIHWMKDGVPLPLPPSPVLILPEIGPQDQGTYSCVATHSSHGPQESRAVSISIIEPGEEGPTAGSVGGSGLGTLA
The assay is described as follows: ELISA assay: inhibition of sRAGE binding to plate-bound S100b. As to conditions: ligand S100b coated on plate, concentration at which 50% signal has been inhibited, read-out: ELISA Assay IC50 (μM) S-100b. As for the experimental part:
(§1) This method is also described and claimed in co-pending U.S. Ser. No. 09/799,152 filed Mar. 5, 2001.
(§2) S100b, β-amyloid and CML (500 ng/100 μL/well) in 100 mM sodium bicarbonate/sodium carbonate buffer (pH 9.8) is loaded onto the wells of a NUNC Maxisorp flat bottom 96 -well microtitre plate. The plate is incubated at 4° C. overnight. The wells are aspirated and treated with 50 mM imidazole buffer saline (pH 7.2) (with 1 mM CaCl2/MgCl2) containing 1% bovine serum albumin (BSA) (300 μL/well) for two h at 37° C.
(§3) Test compounds are dissolved in nanopure water (concentration: 10-100 μM). DMSO may be used as co-solvent. 25 μL of test compound solution in 2% DMSO is added, along with 75 μL SRAGE (4.0×10^−4 mg/mL FAC) to each well and samples are incubated for 1 h at 37° C. The wells are washed 3 times with 155 mM NaCl pH 7.2 buffer saline and are soaked 10 seconds between each wash.
(§4) Non-Radioactive Binding is Performed by Adding:
(§5) 10 μL Biotinylated goat F(ab′)2 Anti-mouse IgG. (8.0×10^−4 mg/mL, FAC)
(§6) 10 μL Alk-phos-Sterptavidin (3×10^−3 mg/mL FAC)
(§7) 10 μL Polyclonal antibody for sRAGE (FAC 6.0×10^−3 mg/mL)
(§8) to 5 mL 50 mM imidazole buffer saline (pH 7.2) containing 0.2% bovine serum albumin and 1 mM […]. The mixture is incubated for 30 minutes at 37° C. 100 μL complex is added to each well and incubation is allowed to proceed at rt for 1 h. Wells are washed 3 times with wash buffer and soaked 10 s between each wash. 100 μL 1 mg/mL (pNPP) in 1 M diethanolamine (pH adjusted to 9.8 with HCl) is added. Color is allowed to develop in the dark for 1 to 2 h at rt. The reaction is quenched with 10 μL of stop solution (0.5 N NaOH in 50% ethanol) and the absorbance is measured spectrophotometrically with a microplate reader at 405 nm.
(ELISA stands for enzyme-linked immunosorbent assay.)

The target in assay [2] is T2, RAGE (sRAGE) binding to Carboxymethyl Lysine (CML) (Homo sapiens, UniProt Q15109).
T2 construct: extracellular domain can be isolated by proteolysis of RAGE to generate soluble RAGE (sRAGE) comprised of the V and C domains
T2 sequence (Q15109 23-342 limits assumed): as above
Nature of the assay: ELISA assay: inhibition of sRAGE binding to plate-bound CML. As to conditions: ligand CML coated on plate, concentration at which 50% signal has been inhibited. On the procedure: as §1, §2, §3, §4, §5, §6, §7, §8

The target in assay [3] is T3, RAGE (sRAGE) binding to β-amyloid (Homo sapiens, UniProt Q15109).
T3 construct: extracellular domain can be isolated by proteolysis of RAGE to generate soluble RAGE (sRAGE) comprised of the V and C domains
T3 sequence (Q15109 23-342 limits assumed): as above
The assay is described as follows: ELISA assay: inhibition of sRAGE binding to plate-bound β-amyloid. As to conditions: ligand β-amyloid coated on plate, concentration at which 50% signal has been inhibited. On the procedure: as §1, §2, §3, §4, §5, §6, §7, §8

As for `CCN(CC)CCCOc1ccc(NC(=O)CCc2ccc(OCc3ccccc3)cc2)c(OCCCN(CC)CC)c1` [Example 1, 3-(4-Benzyloxyphenyl)propionic Acid 2,4-Di-(3-Diethylamino-1-propoxy)aniline Amide], the IC50 in assay [1] was 1 to 5 µM.

Regarding `CCN(CC)CCCOc1ccc(NC(=O)CC(NC(=O)OCC2c3ccccc3-c3ccccc32)c2cccc(OC(C)(C)C)c2)c(OCCCN(CC)CC)c1` (stereo not drawn) [Example 2, 3-(3-Tert-butoxyphenyl)-3-(9-fluorenylmethoxycarbonylamino)propionic Acid 2,4-Di-(3-diethylaminopropoxy)aniline Amide], the IC50 was 0.5 to 1 µM in assay [2], under 0.5 µM in assay [1] and 1 to 5 µM in assay [3].

As for `CCN(CC)CCCOc1ccc(NC(=O)CC(N)c2cccc(OC(C)(C)C)c2)c(OCCCN(CC)CC)c1` (stereo not drawn) [Example 3, 3-(3-Tert-butoxyphenyl)-3-aminopropionic Acid 2,4-Di-(3-diethylaminopropoxy)aniline Amide], the IC50 in assay [2], in assay [1] and in assay [3] was 1 to 5 µM each time.

Consider `CCCCOc1cc(C(=O)OCCN(CC)CC)ccc1NC(=O)C(N)CC1CCOCC1` (stereo not drawn) [Example 4, 3-(4-Tetrahydropyranyl)-2-aminopropionic Acid 4-Diethylaminoethoxycarbonyl-2-butoxyaniline Amide Dihydrochloride], for which, in assay [1], the IC50 was 10 to 20 µM.

Turning to `CCN(CC)CCCOc1ccc(NC(=O)[C@@H]2C[C@@H](OC(C)(C)C)CN2)c(OCCCN(CC)CC)c1` [Example 5, (2S, 4R)-4-Tert-Butoxypyrrolidine-2-carboxylic acid 2,4-Di(3-diethylamino-1-propoxy)aniline Amide], the IC50 in assay [1] lay within 1 to 5 µM.

With `CCCCOc1cc(C(=O)OCCN(CC)CC)ccc1NC(=O)[C@@H]1Cc2ccccc2CN1` [Example 6, (3S)-1,2,3,4-Tetrahydroisoquinoline-3-carboxylic Acid 4-Diethylaminoethoxycarbonyl-2-butoxyaniline Amide Dihydrochloride], the IC50 in assay [2] lay within 5 to 10 µM; in assay [1], 10 to 20 µM; in assay [3], 10 to 20 µM.

As to `CCCCOc1cc(C(=O)OCCN(CC)CC)ccc1NC(=O)[C@@H](Cc1ccc(OCc2ccccc2)cc1)n1ccnc1` [Example 7, (R)-3-(4-Benzyloxyphenyl)-2-(1-imidazolyl)propionic Acid 4-Diethylaminoethoxycarbonyl-2-butoxyaniline Amide], the values for the IC50 in assay [2], in assay [1] and in assay [3] were 1 to 5 µM, 0.5 to 1 µM and 1 to 5 µM, respectively.

In the case of `CCN(CC)CCCOc1ccc(NC(=O)CC(NC(=O)OCC2c3ccccc3-c3ccccc32)c2ccc(OC(C)(C)C)cc2)c(OCCCN(CC)CC)c1` (stereo not drawn) [Example 8, 3-(4-Tert-butoxyphenyl)-3-(9-fluorenylmethoxycarbonylamino)propionic Acid 2,4-Di-(3-diethylaminopropoxy)aniline Amide], the IC50 in assay [2], in assay [1] and in assay [3] was 0.5 to 1 µM in each case.

`CCN(CC)CCCOc1ccc(NC(=O)CC(N)c2ccc(OC(C)(C)C)cc2)c(OCCCN(CC)CC)c1` (stereo not drawn) [Example 9, 3-amino-3-(4-tert-butoxyphenyl)propionic Acid 2,4-Di-(3-diethylaminopropoxy)anline Amide]: the half-maximal inhibitory concentration (IC50) in assay [2], in assay [1] and in assay [3] was 1 to 5 µM throughout.

For the compound `CCN(CC)CCCOc1ccc(NC(=O)CC(NC(=O)OCC2c3ccccc3-c3ccccc32)c2ccccc2OC(C)(C)C)c(OCCCN(CC)CC)c1` (stereo not drawn) [Example 10, 3-(9-fluorenylmethoxycarbonylamino)-3-(2-tert-butoxyphenyl)propionic Acid 2,4-Di-(3-diethylaminopropoxy)aniline Amide], the results for the IC50 in assay [2], in assay [1] and in assay [3] were 1 to 5 µM, 0.5 to 1 µM and 1 to 5 µM, respectively.

As to `CCN(CC)CCCOc1ccc(NC(=O)CC(N)c2ccccc2OC(C)(C)C)c(OCCCN(CC)CC)c1` (stereo not drawn) [Example 11, 3-amino-3-(2-tert-butoxyphenyl)propionic Acid 2,4-Di-(3-diethylaminopropoxy)aniline Amide], the IC50 in assay [2], in assay [1] and in assay [3] was 1 to 5 µM each time.

Consider `CCN(CC)CCCOc1ccc(NC(=O)CC(NC(C)C)c2cccc(OC(C)(C)C)c2)c(OCCCN(CC)CC)c1` (stereo not drawn) [Example 12, 3-Isopropylamino-3-(3-tert-butoxyphenyl)propionic Acid 2,4-Di-(3-diethylaminopropoxy)aniline Amide], for which the values for the IC50 in assay [2], in assay [1] and in assay [3] were 0.5 to 1 µM, 1 to 5 µM and 1 to 5 µM, respectively.

For the compound `CCN(CC)CCCOc1ccc(N(Cc2ccccc2)C(=O)[C@@H](Cc2ccc(OCc3ccccc3)cc2)NC(=O)OC(C)(C)C)cc1` [Example 13, (2R)-2-tert-butoxycarbonylamino-3-[4-(benzyloxy)phenyl]propionic Acid 4-(3-diethylaminopropoxy)-N-benzylaniline Amide], the IC50 in assay [2], in assay [1] and in assay [3] was 5 to 10 µM throughout.

On to `CCN(CC)CCCOc1ccc(N(CC2CCCC2)C(=O)[C@@H](Cc2ccc(OCc3ccccc3)cc2)NC(=O)OC(C)(C)C)cc1` [Example 14, (2R)-2-tert-butoxycarbonylamino-3-[4-(benzyloxy)phenyl]propionic Acid 4-(3-diethylaminopropoxy)-N-cyclopentylmethylaniline Amide], for which the IC50 in assay [2], in assay [1] and in assay [3] was 1 to 5 µM in each case.

Take `CCN(CC)CCCOc1ccc(N(CC2CCCCC2)C(=O)[C@H](N)Cc2ccc(OCc3ccccc3)cc2)cc1` [Example 16, (2R)-2-amino-3-[4-(benzyloxy)phenyl]propionic Acid 4-(3-diethylaminopropoxy)-N-cyclohexylmethylaniline Amide]: the IC50 in assay [2], in assay [1] and in assay [3] was 1 to 5 µM each time.

With `CCN(CC)CCCOc1ccc(N(CC2CCCC2)C(=O)[C@H](N)Cc2ccc(OCc3ccccc3)cc2)cc1` [Example 17, (2R)-2-amino-3-[4-(benzyloxy)phenyl]propionic Acid 4-(3-diethylaminopropoxy)-N-cyclopentylmethylaniline Amide], the results for the IC50 in assay [2], in assay [1] and in assay [3] were 10 to 20 µM, 5 to 10 µM and 10 to 20 µM, respectively.

For `CCCCN(C(=O)[C@@H](Cc1ccc(OCc2ccccc2)cc1)NC(=O)OC(C)(C)C)c1ccc(OCCCN(CC)CC)cc1` [Example 18, (2R)-2-tert-butoxycarbonylamino-3-[4-(benzyloxy)phenyl]propionic Acid 4-(3-diethylaminopropoxy)-N-butylaniline Amide], the IC50 in assay [2], in assay [1] and in assay [3] was 1 to 5 µM throughout.

As to `CCCCN(C(=O)[C@H](N)Cc1ccc(OCc2ccccc2)cc1)c1ccc(OCCCN(CC)CC)cc1` [Example 19, (2R)-2-amino-3-[4-(benzyloxy)phenyl]propionic Acid 4-(3-diethylaminopropoxy)-N-butylaniline Amide], the IC50 in assay [2], in assay [1] and in assay [3] was 1 to 5 µM throughout.

Take `CCCCN(C(=O)[C@@H](Cc1ccc(OCc2ccccc2)cc1)NC(=O)OC(C)(C)C)c1cccc(OCCCN(CC)CC)c1` [Example 20, (2R)-2-tert-butoxycarbonylamino-3-[4-(benzyloxy)phenyl]propionic Acid 3-(3-diethylaminopropoxy)-N-butylaniline Amide]: the IC50 in assay [2], in assay [1] and in assay [3] was 1 to 5 µM throughout.
